From the supplement of paper PMC10733146

Columns and labels:
Assay in all cases: viability relative to DMSO control (fraction); higher = less drug effect (more viable cells)
Conditions in all cases: 48 h
[1] = system: primary ALL patient cells (S048)
Outline: (§1)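 Using 384-well plates with compounds already plated at five concentrations, one well per concentration, 4 × 10^4 primary mononuclear tumour cells were added per well. Cells were Ficoll-isolated from blood or bone marrow or came from processed lymph node, fresh or cryopreserved. They were kept for 48 h at 37 °C and 5% CO2 in RPMI-1640 supplemented with penicillin/streptomycin, L-glutamine and human serum, and viability was read as CellTiter-Glo luminescence relative to the median of 16 inner DMSO wells.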

[2] = system: primary ALL patient cells (S088)
Outline: as §1

[3] = system: primary AML patient cells (S006)
Outline: as §1

[4] = system: primary AML patient cells (S011)
Outline: as §1

[5] = system: primary AML patient cells (S012)
Outline: as §1

[6] = system: primary AML patient cells (S017)
Outline: as §1

[7] = system: primary AML patient cells (S021)
Outline: as §1

[8] = system: primary AML patient cells (S056)
Outline: as §1

[9] = system: primary AML patient cells (S060)
Outline: as §1

[10] = system: primary AML patient cells (S081)
Outline: as §1

[11] = system: primary AML patient cells (S085)
Outline: as §1

[12] = system: primary B-PLL patient cells (S016)
Outline: as §1

[13] = system: primary BL patient cells (S005)
Outline: as §1

[14] = system: primary CLL patient cells (S031)
Outline: as §1

[15] = system: primary CLL patient cells (S043)
Outline: as §1

[16] = system: primary FL patient cells (S022)
Outline: as §1

[17] = system: primary FL patient cells (S087)
Outline: as §1

[18] = system: primary MCL patient cells (S053)
Outline: as §1

[19] = system: primary MCL patient cells (S063)
Outline: as §1

[20] = system: primary MCL patient cells (S068)
Outline: as §1

Structure (SMILES): COc1ccc(C2=N[C@@H](c3ccc(Cl)cc3)[C@@H](c3ccc(Cl)cc3)N2C(=O)N2CCNC(=O)C2)c(OC(C)C)c1 [Nutlin-3a]
- viability ([1]; 0.032 µM): 0.97
- viability ([1]; 0.16 µM): 0.995
- viability ([1]; 0.8 µM): 0.881
- viability ([1]; 4 µM): 0.506
- viability ([1]; 20 µM): 0.056
- viability ([2]; 0.032 µM): 0.954
- viability ([2]; 0.16 µM): 0.854
- viability ([2]; 0.8 µM): 0.795
- viability ([2]; 4 µM): 0.355
- viability ([2]; 20 µM): 0.133
- viability ([3]; 0.032 µM): 1.01
- viability ([3]; 0.16 µM): 0.917
- viability ([3]; 0.8 µM): 0.694
- viability ([3]; 4 µM): 0.136
- viability ([3]; 20 µM): 0.0568
- viability ([4]; 0.032 µM): 0.973
- viability ([4]; 0.16 µM): 1.04
- viability ([4]; 0.8 µM): 0.8
- viability ([4]; 4 µM): 0.363
- viability ([4]; 20 µM): 0.155
- viability ([5]; 0.032 µM): 0.945
- viability ([5]; 0.16 µM): 0.946
- viability ([5]; 0.8 µM): 1.03
- viability ([5]; 4 µM): 1.01
- viability ([5]; 20 µM): 0.883
- viability ([6]; 0.032 µM): 1.05
- viability ([6]; 0.16 µM): 0.979
- viability ([6]; 0.8 µM): 1.03
- viability ([6]; 4 µM): 1.03
- viability ([6]; 20 µM): 1.08
- viability ([7]; 0.032 µM): 0.972
- viability ([7]; 0.16 µM): 0.978
- viability ([7]; 0.8 µM): 0.73
- viability ([7]; 4 µM): 0.328
- viability ([7]; 20 µM): 0.2
- viability ([8]; 0.032 µM): 1.1
- viability ([8]; 0.16 µM): 1.07
- viability ([8]; 0.8 µM): 0.706
- viability ([8]; 4 µM): 0.425
- viability ([8]; 20 µM): 0.45
- viability ([9]; 0.032 µM): 1.02
- viability ([9]; 0.16 µM): 0.99
- viability ([9]; 0.8 µM): 1.03
- viability ([9]; 4 µM): 1.01
- viability ([9]; 20 µM): 0.974
- viability ([10]; 0.032 µM): 0.997
- viability ([10]; 0.16 µM): 0.979
- viability ([10]; 0.8 µM): 1.03
- viability ([10]; 4 µM): 1.02
- viability ([10]; 20 µM): 0.783
- viability ([11]; 0.032 µM): 1.06
- viability ([11]; 0.16 µM): 1.31
- viability ([11]; 0.8 µM): 0.877
- viability ([11]; 4 µM): 0.509
- viability ([11]; 20 µM): 0.503
- viability ([12]; 0.032 µM): 1.06
- viability ([12]; 0.16 µM): 0.946
- viability ([12]; 0.8 µM): 1.02
- viability ([12]; 4 µM): 0.733
- viability ([12]; 20 µM): 0.101
- viability ([13]; 0.032 µM): 0.962
- viability ([13]; 0.16 µM): 0.887
- viability ([13]; 0.8 µM): 1.01
- viability ([13]; 4 µM): 0.91
- viability ([13]; 20 µM): 0.827
- viability ([14]; 0.032 µM): 0.869
- viability ([14]; 0.16 µM): 0.929
- viability ([14]; 0.8 µM): 0.8
- viability ([14]; 4 µM): 0.451
- viability ([14]; 20 µM): 0.089
- viability ([15]; 0.032 µM): 1.05
- viability ([15]; 0.16 µM): 1.01
- viability ([15]; 0.8 µM): 1.04
- viability ([15]; 4 µM): 0.894
- viability ([15]; 20 µM): 0.322
- viability ([16]; 0.032 µM): 0.954
- viability ([16]; 0.16 µM): 0.936
- viability ([16]; 0.8 µM): 1.02
- viability ([16]; 4 µM): 0.881
- viability ([16]; 20 µM): 0.621
- viability ([17]; 0.032 µM): 0.984
- viability ([17]; 0.16 µM): 0.964
- viability ([17]; 0.8 µM): 0.931
- viability ([17]; 4 µM): 0.816
- viability ([17]; 20 µM): 0.675
- viability ([18]; 0.032 µM): 1.01
- viability ([18]; 0.16 µM): 0.896
- viability ([18]; 0.8 µM): 0.738
- viability ([18]; 4 µM): 0.433
- viability ([18]; 20 µM): 0.282
- viability ([19]; 0.032 µM): 0.998
- viability ([19]; 0.16 µM): 0.985
- viability ([19]; 0.8 µM): 0.984
- viability ([19]; 4 µM): 0.608
- viability ([19]; 20 µM): 0.215
- viability ([20]; 0.032 µM): 1.17
- viability ([20]; 0.16 µM): 0.988
- viability ([20]; 0.8 µM): 0.987
- viability ([20]; 4 µM): 0.929
- viability ([20]; 20 µM): 0.949

Structure (SMILES): O=C(c1cc(Cc2n[nH]c(=O)c3ccccc23)ccc1F)N1CCN(C(=O)C2CC2)CC1 [Olaparib]
- viability ([1]; 0.024 µM): 0.685
- viability ([1]; 0.12 µM): 0.799
- viability ([1]; 0.6 µM): 0.786
- viability ([1]; 3 µM): 0.771
- viability ([1]; 15 µM): 0.7
- viability ([2]; 0.024 µM): 0.579
- viability ([2]; 0.12 µM): 0.775
- viability ([2]; 0.6 µM): 0.788
- viability ([2]; 3 µM): 0.821
- viability ([2]; 15 µM): 0.787
- viability ([3]; 0.024 µM): 0.94
- viability ([3]; 0.12 µM): 0.986
- viability ([3]; 0.6 µM): 1.01
- viability ([3]; 3 µM): 0.884
- viability ([3]; 15 µM): 0.722
- viability ([4]; 0.024 µM): 0.832
- viability ([4]; 0.12 µM): 0.871
- viability ([4]; 0.6 µM): 0.873
- viability ([4]; 3 µM): 0.799
- viability ([4]; 15 µM): 0.603
- viability ([5]; 0.024 µM): 0.928
- viability ([5]; 0.12 µM): 0.976
- viability ([5]; 0.6 µM): 0.955
- viability ([5]; 3 µM): 0.925
- viability ([5]; 15 µM): 0.876
- viability ([6]; 0.024 µM): 0.796
- viability ([6]; 0.12 µM): 0.917
- viability ([6]; 0.6 µM): 0.931
- viability ([6]; 3 µM): 0.94
- viability ([6]; 15 µM): 0.914
- viability ([7]; 0.024 µM): 0.878
- viability ([7]; 0.12 µM): 0.846
- viability ([7]; 0.6 µM): 0.895
- viability ([7]; 3 µM): 0.938
- viability ([7]; 15 µM): 0.797
- viability ([8]; 0.024 µM): 1.05
- viability ([8]; 0.12 µM): 0.922
- viability ([8]; 0.6 µM): 1.05
- viability ([8]; 3 µM): 1.15
- viability ([8]; 15 µM): 1.17
- viability ([9]; 0.024 µM): 0.947
- viability ([9]; 0.12 µM): 0.926
- viability ([9]; 0.6 µM): 0.979
- viability ([9]; 3 µM): 0.973
- viability ([9]; 15 µM): 0.987
- viability ([10]; 0.024 µM): 0.818
- viability ([10]; 0.12 µM): 0.858
- viability ([10]; 0.6 µM): 0.889
- viability ([10]; 3 µM): 0.884
- viability ([10]; 15 µM): 0.894
- viability ([11]; 0.024 µM): 0.861
- viability ([11]; 0.12 µM): 0.866
- viability ([11]; 0.6 µM): 0.988
- viability ([11]; 3 µM): 0.793
- viability ([11]; 15 µM): 0.992
- viability ([12]; 0.024 µM): 0.86
- viability ([12]; 0.12 µM): 0.871
- viability ([12]; 0.6 µM): 0.872
- viability ([12]; 3 µM): 0.8
- viability ([12]; 15 µM): 0.722
- viability ([13]; 0.024 µM): 0.938
- viability ([13]; 0.12 µM): 0.985
- viability ([13]; 0.6 µM): 0.977
- viability ([13]; 3 µM): 0.904
- viability ([13]; 15 µM): 0.878
- viability ([14]; 0.024 µM): 0.814
- viability ([14]; 0.12 µM): 0.89
- viability ([14]; 0.6 µM): 0.913
- viability ([14]; 3 µM): 0.829
- viability ([14]; 15 µM): 0.854
- viability ([15]; 0.024 µM): 0.797
- viability ([15]; 0.12 µM): 0.814
- viability ([15]; 0.6 µM): 0.835
- viability ([15]; 3 µM): 0.867
- viability ([15]; 15 µM): 0.825
- viability ([16]; 0.024 µM): 0.828
- viability ([16]; 0.12 µM): 1.07
- viability ([16]; 0.6 µM): 0.937
- viability ([16]; 3 µM): 0.866
- viability ([16]; 15 µM): 0.875
- viability ([17]; 0.024 µM): 0.882
- viability ([17]; 0.12 µM): 0.916
- viability ([17]; 0.6 µM): 0.911
- viability ([17]; 3 µM): 0.912
- viability ([17]; 15 µM): 0.845
- viability ([18]; 0.024 µM): 0.801
- viability ([18]; 0.12 µM): 0.863
- viability ([18]; 0.6 µM): 0.834
- viability ([18]; 3 µM): 0.685
- viability ([18]; 15 µM): 0.643
- viability ([19]; 0.024 µM): 0.872
- viability ([19]; 0.12 µM): 0.936
- viability ([19]; 0.6 µM): 0.893
- viability ([19]; 3 µM): 0.933
- viability ([19]; 15 µM): 0.886
- viability ([20]; 0.024 µM): 0.896
- viability ([20]; 0.12 µM): 0.838
- viability ([20]; 0.6 µM): 0.714
- viability ([20]; 3 µM): 0.78
- viability ([20]; 15 µM): 0.585
